# Paper PMC7827406, “Structure–Activity Relationship (SAR) Study of Spautin-1 to Entail the Discovery of Novel NEK4 Inhibitors” (International Journal of Molecular Sciences, 2021)
# Where two headings read alike, the source gives them in different places.
# What was measured:
# Assay in all cases: biochemical
# Set-up in all cases: Eurofins KinaseProfiler full panel at Km ATP, residual kinase activity (%) relative to DMSO
# [1] = target: PAK6(h) (Homo sapiens, UniProt Q9NQU5)
# Procedure, shortened: (§1)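 Compounds screened at 10 µM in radiometric kinase activity assays at Km ATP, reported as remaining kinase activity (%). A KINOMEscan competition-binding screen at 10 µM measured DNA-tagged kinase retained on immobilized active-site ligand by qPCR.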
# [2] = target: T1, NDR1(h) (Homo sapiens, UniProt Q15208)
# T1 construct: gene STK38
# T1 sequence (Q15208 whole entry): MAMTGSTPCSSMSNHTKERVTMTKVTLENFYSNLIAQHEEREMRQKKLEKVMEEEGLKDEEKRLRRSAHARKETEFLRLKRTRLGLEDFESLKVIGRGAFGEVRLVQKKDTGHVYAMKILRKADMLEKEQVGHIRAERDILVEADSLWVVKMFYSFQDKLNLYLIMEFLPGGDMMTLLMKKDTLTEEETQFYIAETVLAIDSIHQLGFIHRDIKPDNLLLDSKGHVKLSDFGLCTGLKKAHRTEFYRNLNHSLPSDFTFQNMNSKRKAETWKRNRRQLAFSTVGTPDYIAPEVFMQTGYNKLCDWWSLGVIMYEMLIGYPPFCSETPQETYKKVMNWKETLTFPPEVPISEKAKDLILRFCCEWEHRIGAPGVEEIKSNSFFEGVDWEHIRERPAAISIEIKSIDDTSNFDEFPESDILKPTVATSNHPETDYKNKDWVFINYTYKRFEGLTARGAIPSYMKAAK
# Procedure, shortened: as §1
# [3] = target: MELK(h) (Homo sapiens, UniProt Q14680)
# Sequence of MELK(h) (Q14680 whole entry): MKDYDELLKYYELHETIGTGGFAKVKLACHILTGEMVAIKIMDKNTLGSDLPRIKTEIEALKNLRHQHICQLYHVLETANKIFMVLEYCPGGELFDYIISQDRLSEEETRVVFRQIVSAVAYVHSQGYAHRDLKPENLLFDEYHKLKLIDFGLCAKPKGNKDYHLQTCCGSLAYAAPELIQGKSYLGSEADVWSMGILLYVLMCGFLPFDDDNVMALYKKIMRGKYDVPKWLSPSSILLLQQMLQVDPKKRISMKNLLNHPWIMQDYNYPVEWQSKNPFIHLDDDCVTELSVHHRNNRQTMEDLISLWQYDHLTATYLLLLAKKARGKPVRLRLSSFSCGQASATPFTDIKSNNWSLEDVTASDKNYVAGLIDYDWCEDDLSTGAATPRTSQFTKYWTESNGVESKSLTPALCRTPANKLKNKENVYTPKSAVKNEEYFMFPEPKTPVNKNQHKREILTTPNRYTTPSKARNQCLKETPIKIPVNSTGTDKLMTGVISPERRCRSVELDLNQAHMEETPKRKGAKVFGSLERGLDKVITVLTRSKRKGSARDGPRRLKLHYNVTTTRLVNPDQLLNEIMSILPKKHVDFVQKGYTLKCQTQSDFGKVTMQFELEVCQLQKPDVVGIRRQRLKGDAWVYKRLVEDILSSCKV
# Procedure, shortened: as §1
# [4] = target: Blk(h) (Homo sapiens, UniProt P51451)
# Sequence of Blk(h) (P51451 whole entry): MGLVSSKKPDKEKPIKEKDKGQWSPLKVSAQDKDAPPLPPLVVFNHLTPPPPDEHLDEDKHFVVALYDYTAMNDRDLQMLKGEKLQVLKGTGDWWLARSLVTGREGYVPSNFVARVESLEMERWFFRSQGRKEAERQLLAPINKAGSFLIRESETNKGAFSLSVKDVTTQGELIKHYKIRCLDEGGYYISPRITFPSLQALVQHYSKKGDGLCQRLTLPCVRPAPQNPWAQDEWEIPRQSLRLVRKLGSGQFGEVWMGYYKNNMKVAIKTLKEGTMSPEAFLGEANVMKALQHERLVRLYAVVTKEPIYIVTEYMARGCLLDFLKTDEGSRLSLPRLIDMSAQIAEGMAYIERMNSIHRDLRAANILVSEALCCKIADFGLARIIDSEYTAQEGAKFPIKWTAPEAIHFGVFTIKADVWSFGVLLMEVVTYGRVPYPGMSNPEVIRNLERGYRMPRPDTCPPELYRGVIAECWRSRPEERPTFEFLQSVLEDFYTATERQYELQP
# Procedure, shortened: as §1
# [5] = target: T2, GCK(h) (Homo sapiens, UniProt Q12851)
# T2 construct: gene MAP4K2
# T2 sequence (Q12851 1-820): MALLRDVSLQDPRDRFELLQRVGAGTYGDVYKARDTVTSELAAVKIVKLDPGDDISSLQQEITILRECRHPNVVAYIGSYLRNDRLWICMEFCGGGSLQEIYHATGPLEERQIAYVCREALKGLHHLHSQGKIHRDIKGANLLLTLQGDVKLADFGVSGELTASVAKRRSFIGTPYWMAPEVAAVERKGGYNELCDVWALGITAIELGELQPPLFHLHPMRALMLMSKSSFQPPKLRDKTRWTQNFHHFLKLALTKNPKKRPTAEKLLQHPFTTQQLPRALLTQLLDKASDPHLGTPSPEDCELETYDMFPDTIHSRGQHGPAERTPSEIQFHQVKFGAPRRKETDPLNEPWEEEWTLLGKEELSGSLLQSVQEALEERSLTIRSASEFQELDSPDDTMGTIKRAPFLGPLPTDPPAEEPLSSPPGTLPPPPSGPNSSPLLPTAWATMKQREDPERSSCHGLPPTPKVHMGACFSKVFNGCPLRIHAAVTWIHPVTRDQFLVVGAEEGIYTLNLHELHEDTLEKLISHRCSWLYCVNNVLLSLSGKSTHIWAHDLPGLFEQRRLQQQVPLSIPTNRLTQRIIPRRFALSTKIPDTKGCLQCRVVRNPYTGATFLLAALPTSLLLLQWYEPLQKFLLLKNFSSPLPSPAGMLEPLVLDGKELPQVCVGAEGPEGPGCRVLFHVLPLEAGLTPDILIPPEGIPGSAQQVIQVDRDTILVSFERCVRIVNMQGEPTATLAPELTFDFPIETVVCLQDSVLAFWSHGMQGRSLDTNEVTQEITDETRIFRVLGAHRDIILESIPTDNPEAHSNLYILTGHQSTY
# Procedure, shortened: as §1
# [6] = target: T3, cSRC(h) (Homo sapiens, UniProt P12931)
# T3 construct: gene SRC
# T3 sequence (P12931 whole entry): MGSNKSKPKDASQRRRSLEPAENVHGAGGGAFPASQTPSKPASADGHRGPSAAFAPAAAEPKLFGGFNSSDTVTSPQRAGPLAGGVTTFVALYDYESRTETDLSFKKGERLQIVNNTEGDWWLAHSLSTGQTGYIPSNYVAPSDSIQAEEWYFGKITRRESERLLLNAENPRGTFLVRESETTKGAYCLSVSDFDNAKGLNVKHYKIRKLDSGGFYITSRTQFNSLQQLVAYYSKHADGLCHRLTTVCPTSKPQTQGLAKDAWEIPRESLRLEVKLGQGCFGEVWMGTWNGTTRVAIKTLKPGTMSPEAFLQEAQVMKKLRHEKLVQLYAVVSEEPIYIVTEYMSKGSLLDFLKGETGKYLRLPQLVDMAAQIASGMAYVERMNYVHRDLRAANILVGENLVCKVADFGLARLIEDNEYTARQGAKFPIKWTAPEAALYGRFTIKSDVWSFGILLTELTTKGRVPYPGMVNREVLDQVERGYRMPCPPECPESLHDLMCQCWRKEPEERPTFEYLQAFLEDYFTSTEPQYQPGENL
# Procedure, shortened: as §1
# [7] = target: Syk(h) (Homo sapiens, UniProt P43405)
# Procedure, shortened: as §1
# [8] = target: T4, MLK4(h) (Homo sapiens, UniProt Q5TCX8)
# T4 construct: gene MAP3K21
# T4 sequence (Q5TCX8 whole entry): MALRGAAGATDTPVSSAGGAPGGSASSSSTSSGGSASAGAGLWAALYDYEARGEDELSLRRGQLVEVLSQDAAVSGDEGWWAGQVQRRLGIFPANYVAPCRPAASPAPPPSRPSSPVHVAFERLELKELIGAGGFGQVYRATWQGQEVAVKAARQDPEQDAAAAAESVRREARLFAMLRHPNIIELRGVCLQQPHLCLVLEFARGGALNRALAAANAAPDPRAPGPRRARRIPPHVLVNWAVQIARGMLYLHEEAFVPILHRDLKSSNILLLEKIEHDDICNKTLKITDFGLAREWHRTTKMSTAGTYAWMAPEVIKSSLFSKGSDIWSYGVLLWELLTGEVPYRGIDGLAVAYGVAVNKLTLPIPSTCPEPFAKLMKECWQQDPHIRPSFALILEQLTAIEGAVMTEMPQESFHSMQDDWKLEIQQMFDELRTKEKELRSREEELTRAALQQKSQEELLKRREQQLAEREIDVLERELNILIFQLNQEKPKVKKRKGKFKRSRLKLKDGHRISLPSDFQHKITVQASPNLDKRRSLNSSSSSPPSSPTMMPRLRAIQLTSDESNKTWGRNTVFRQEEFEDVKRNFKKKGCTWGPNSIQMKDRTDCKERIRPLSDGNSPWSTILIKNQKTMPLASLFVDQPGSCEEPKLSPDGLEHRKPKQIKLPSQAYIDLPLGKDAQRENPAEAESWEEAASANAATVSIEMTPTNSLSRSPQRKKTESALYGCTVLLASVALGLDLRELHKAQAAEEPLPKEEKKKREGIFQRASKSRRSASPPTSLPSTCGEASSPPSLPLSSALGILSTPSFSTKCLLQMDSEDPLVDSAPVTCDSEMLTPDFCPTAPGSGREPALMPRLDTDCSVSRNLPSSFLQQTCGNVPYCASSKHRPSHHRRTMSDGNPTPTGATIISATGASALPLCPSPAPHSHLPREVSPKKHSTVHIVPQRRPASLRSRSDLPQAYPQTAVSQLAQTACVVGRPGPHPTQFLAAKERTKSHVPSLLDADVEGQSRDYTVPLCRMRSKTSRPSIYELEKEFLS
# Procedure, shortened: as §1
# [9] = read-out: Residual activity (%) 5ay
# [10] = read-out: Residual activity (%) Spautin-1 5aa
# [11] = read-out: Residual activity (%) 5at
# [12] = read-out: Residual activity (%) 5as
# Sequence of PAK6(h) (Q9NQU5 whole entry): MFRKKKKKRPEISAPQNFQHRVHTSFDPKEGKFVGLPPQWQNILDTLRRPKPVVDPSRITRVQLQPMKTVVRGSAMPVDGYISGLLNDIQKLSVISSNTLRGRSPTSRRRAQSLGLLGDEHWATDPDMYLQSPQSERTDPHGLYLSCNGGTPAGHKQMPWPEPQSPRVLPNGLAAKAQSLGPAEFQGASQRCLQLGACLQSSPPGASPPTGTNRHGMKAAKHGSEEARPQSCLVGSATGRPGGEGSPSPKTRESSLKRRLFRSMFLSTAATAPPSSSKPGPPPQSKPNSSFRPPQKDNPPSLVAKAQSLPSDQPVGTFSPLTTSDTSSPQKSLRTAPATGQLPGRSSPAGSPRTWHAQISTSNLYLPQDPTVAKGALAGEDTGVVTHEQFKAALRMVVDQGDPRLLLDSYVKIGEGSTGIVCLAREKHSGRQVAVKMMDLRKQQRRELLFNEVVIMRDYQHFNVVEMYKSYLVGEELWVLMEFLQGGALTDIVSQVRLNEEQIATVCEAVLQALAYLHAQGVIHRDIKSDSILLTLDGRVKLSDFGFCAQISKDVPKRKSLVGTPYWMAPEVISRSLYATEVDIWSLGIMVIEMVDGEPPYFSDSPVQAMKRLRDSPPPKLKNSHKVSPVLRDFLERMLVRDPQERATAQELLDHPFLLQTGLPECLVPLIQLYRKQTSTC
structure (smiles),measurement,setting,value
"COc1ccc2ncnc(Nc3cccc(F)c3)c2c1 [5ay, N-(3-Fluorophenyl)-6-Methoxy-4-Quinazolinamine]",remaining activity at 10 µM,[1]; [9],86%
same,remaining activity at 10 µM,[2]; [9],98%
same,remaining activity at 10 µM,[3]; [9],95%
same,remaining activity at 10 µM,[4]; [9],85%
same,remaining activity at 10 µM,[5]; [9],60%
same,remaining activity at 10 µM,[6]; [9],106%
same,remaining activity at 10 µM,[7]; [9],110%
same,remaining activity at 10 µM,[8]; [9],91%
"Fc1ccc(CNc2ncnc3ccc(F)cc23)cc1 [5aa, 6-Fluoro-N-(4-fluorobenzyl)-4-Quinazolinamine]",remaining activity at 10 µM,[1]; [10],92%
same,remaining activity at 10 µM,[2]; [10],108%
same,remaining activity at 10 µM,[3]; [10],86%
same,remaining activity at 10 µM,[4]; [10],97%
same,remaining activity at 10 µM,[5]; [10],109%
same,remaining activity at 10 µM,[6]; [10],133%
same,remaining activity at 10 µM,[7]; [10],113%
same,remaining activity at 10 µM,[8]; [10],105%
"Fc1ccc2ncnc(NCCc3ccc(Cl)cc3)c2c1 [5at, N-[2-(4-Chlorophenyl)Ethyl]-6-Fluoro-4-Quinazolinamine]",remaining activity at 10 µM,[1]; [11],92%
same,remaining activity at 10 µM,[2]; [11],89%
same,remaining activity at 10 µM,[3]; [11],73%
same,remaining activity at 10 µM,[4]; [11],91%
same,remaining activity at 10 µM,[5]; [11],87%
same,remaining activity at 10 µM,[6]; [11],120%
same,remaining activity at 10 µM,[7]; [11],92%
same,remaining activity at 10 µM,[8]; [11],94%
"Fc1ccc(CCNc2ncnc3ccc(F)cc23)cc1 [5as, 6-Fluoro-N-[2-(4-Fluorophenyl)Ethyl]-4-Quinazolinamine]",remaining activity at 10 µM,[1]; [12],84%
same,remaining activity at 10 µM,[2]; [12],96%
same,remaining activity at 10 µM,[3]; [12],90%
same,remaining activity at 10 µM,[4]; [12],100%
same,remaining activity at 10 µM,[5]; [12],88%
same,remaining activity at 10 µM,[6]; [12],81%
same,remaining activity at 10 µM,[7]; [12],84%
same,remaining activity at 10 µM,[8]; [12],93%
